Key:
[1] = system: A-549; test: cells; conditions: Homo sapiens, A549, 48 h; for GI50: read-out: A549 GI50; for CC50: read-out: A549 LC50; for IC (TGI): read-out: A549 TGI
Outline: (§1)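 Colorimetric SRB read (490 nm) on triplicate wells after 48 h at 37 °C, 5% CO2. Dose range 10 to 10^−8 μg/ml; 5×10^3 cells/well pre-attached 18 h.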

[2] = system: HT-29; test: cells; conditions: Homo sapiens, HT-29, 48 h; for GI50: read-out: HT29 GI50; for CC50: read-out: HT29 LC50; for IC (TGI): read-out: HT29 TGI
Outline: as §1

[3] = system: LoVo; test: cells; conditions: Homo sapiens, LoVo, 48 h; for GI50: read-out: LOVO GI50; for CC50: read-out: LOVO LC50; for IC (TGI): read-out: LOVO TGI
Outline: as §1

[4] = system: DU-145; test: Inhibition of cells growth by colorimetric assay (SRB); conditions: Homo sapiens, DU-145, 48 h; for GI50: read-out: DU145 GI50; for CC50: read-out: DU145 LC50; for IC (TGI): read-out: DU145 TGI
Outline: as §1

[5] = system: HeLa-APL; test: as above; conditions: Homo sapiens, 48 h; for GI50: read-out: HELA-APL GI50; for CC50: read-out: HELA-APL LC50; for IC (TGI): read-out: HELA-APL TGI
Outline: as §1

[6] = system: HeLa; test: as above; conditions: Homo sapiens, HeLa, 48 h; for GI50: read-out: HELA GI50; for CC50: read-out: HELA LC50; for IC (TGI): read-out: HELA TGI
Outline: as §1

[7] = system: IGROV-1; test: as above; conditions: Homo sapiens, IGROV-1, 48 h; for GI50: read-out: IGROV GI50; for CC50: read-out: IGROV LC50; for IC (TGI): read-out: IGROV TGI
Outline: as §1

[8] = system: IGROV-ET; test: as above; conditions: Homo sapiens, 48 h; for GI50: read-out: IGROV-ET GI50; for CC50: read-out: IGROV-ET LC50; for IC (TGI): read-out: IGROV-ET TGI
Outline: as §1

[9] = system: K-562; test: as above; conditions: Homo sapiens, K562, 48 h; for GI50: read-out: K562 GI50; for CC50: read-out: K562 LC50; for IC (TGI): read-out: K562 TGI
Outline: as §1

[10] = system: LNCaP; test: as above; conditions: Homo sapiens, LNCaP, 48 h; for GI50: read-out: LNCAP GI50; for CC50: read-out: LNCAP LC50; for IC (TGI): read-out: LNCAP TGI
Outline: as §1

[11] = system: LoVo-Dox; test: as above; conditions: Homo sapiens, 48 h; for GI50: read-out: LOVO-DOX GI50; for CC50: read-out: LOVO-DOX LC50; for IC (TGI): read-out: LOVO-DOX TGI
Outline: as §1

[12] = system: PANC-1; test: as above; conditions: Homo sapiens, PANC-1, 48 h; for GI50: read-out: PANC-1 GI50; for CC50: read-out: PANC-1 LC50; for IC (TGI): read-out: PANC-1 TGI
Outline: as §1

[13] = system: SK-BR-3; test: as above; conditions: Homo sapiens, SK-BR-3, 48 h; for GI50: read-out: SK-BR3 GI50; for CC50: read-out: SK-BR3 LC50; for IC (TGI): read-out: SK-BR3 TGI
Outline: as §1

[14] = system: SK-MEL-28; test: as above; conditions: Homo sapiens, SK-MEL-28, 48 h; for GI50: read-out: MEL-28 GI50; for CC50: read-out: MEL-28 LC50; for IC (TGI): read-out: MEL-28 TGI
Outline: as §1

SMILES: COc1cc2c(cc1O)CCN[C@]21CS[C@@H]2c3c(OC(=O)/C=C/c4ccccc4)c(C)c4c(c3[C@H](COC1=O)N1C2[C@@H]2N[C@@H](Cc3cc(C)c(OC)c(O)c32)[C@@H]1O)OCO4 (stereo partly drawn) [compound 53]
- GI50 [1]: 3.34 nM
- CC50 [1]: 2210 nM
- IC (TGI) [1]: 8.17 nM
- GI50 [2]: 4.33 nM
- CC50 [2]: 2740 nM
- IC (TGI) [2]: 18.3 nM
- GI50 [3]: 3.82 nM
- CC50 [3]: 2940 nM
- IC (TGI) [3]: 8.54 nM
- GI50 [4]: 3.58 nM
- CC50 [4]: 3040 nM
- IC (TGI) [4]: 24.3 nM
- GI50 [5]: 2.99 nM
- CC50 [5]: 38.9 nM
- IC (TGI) [5]: 12.2 nM
- GI50 [6]: 3.12 nM
- CC50 [6]: 83.9 nM
- IC (TGI) [6]: 7.55 nM
- GI50 [7]: 2.74 nM
- CC50 [7]: 2740 nM
- IC (TGI) [7]: 6.72 nM
- GI50 [8]: 10.2 nM
- CC50 [8]: 6450 nM
- IC (TGI) [8]: 1400 nM
- GI50 [9]: 1.54 nM
- CC50 [9]: 583 nM
- IC (TGI) [9]: 13 nM
- GI50 [10]: 1.87 nM
- CC50 [10]: 8.33 nM
- IC (TGI) [10]: 3.95 nM
- GI50 [11]: 57.9 nM
- CC50 [11]: 5240 nM
- IC (TGI) [11]: 1450 nM
- GI50 [12]: 3.36 nM
- CC50 [12]: 1440 nM
- IC (TGI) [12]: 10.1 nM
- GI50 [13]: 2.95 nM
- CC50 [13]: 1820 nM
- IC (TGI) [13]: 29.9 nM
- GI50 [14]: 2.21 nM
- CC50 [14]: 7.2 nM
- IC (TGI) [14]: 4 nM

SMILES: CCCCCCCC(=O)Oc1c(C)c2c(c3c1[C@H]1SC[C@]4(NCCc5cc(O)c(OC)cc54)C(=O)OC[C@@H]3N3C1[C@@H]1N[C@@H](Cc4cc(C)c(OC)c(O)c41)[C@@H]3O)OCO2 (stereo partly drawn) [compound 54]
- GI50 [1]: 20.2 nM
- CC50 [1]: 636 nM
- IC (TGI) [1]: 66.3 nM
- GI50 [2]: 29.9 nM
- CC50 [2]: 12000 nM
- IC (TGI) [2]: 123 nM
- GI50 [3]: 3.85 nM
- CC50 [3]: 12000 nM
- IC (TGI) [3]: 14.4 nM
- GI50 [4]: 3.76 nM
- CC50 [4]: 12000 nM
- IC (TGI) [4]: 22 nM
- GI50 [5]: 13.3 nM
- CC50 [5]: 459 nM
- IC (TGI) [5]: 143 nM
- GI50 [6]: 21.9 nM
- CC50 [6]: 376 nM
- IC (TGI) [6]: 64.1 nM
- GI50 [7]: 6.56 nM
- CC50 [7]: 3370 nM
- IC (TGI) [7]: 39.4 nM
- GI50 [8]: 37 nM
- CC50 [8]: 12000 nM
- IC (TGI) [8]: 120 nM
- GI50 [9]: 1.88 nM
- CC50 [9]: 2700 nM
- IC (TGI) [9]: 5.18 nM
- GI50 [10]: 7.42 nM
- CC50 [10]: 109 nM
- IC (TGI) [10]: 29.3 nM
- GI50 [11]: 338 nM
- CC50 [11]: 12000 nM
- IC (TGI) [11]: 12000 nM
- GI50 [12]: 23 nM
- CC50 [12]: 5310 nM
- IC (TGI) [12]: 64.8 nM
- GI50 [13]: 12.7 nM
- CC50 [13]: 12000 nM
- IC (TGI) [13]: 154 nM
- GI50 [14]: 15.5 nM
- CC50 [14]: 83.9 nM
- IC (TGI) [14]: 36.1 nM

SMILES: C=CCN1[C@@H]2c3c(cc(C)c(OC)c3O)C[C@H]1[C@H](C#N)N1C2[C@@H]2SC[C@]3(NCCc4c3[nH]c3ccc(OC)cc43)C(=O)OC[C@H]1c1c3c(c(C)c(OC(C)=O)c12)OCO3 (stereo partly drawn) [compound 56]
- GI50 [1]: 30.2 nM
- CC50 [1]: 705 nM
- IC (TGI) [1]: 68.7 nM
- GI50 [2]: 48.8 nM
- CC50 [2]: 12000 nM
- IC (TGI) [2]: 571 nM
- GI50 [3]: 23 nM
- CC50 [3]: 101 nM
- IC (TGI) [3]: 48.2 nM
- GI50 [4]: 41 nM
- CC50 [4]: 12000 nM
- IC (TGI) [4]: 101 nM
- GI50 [5]: 25.9 nM
- CC50 [5]: 204 nM
- IC (TGI) [5]: 58.3 nM
- GI50 [6]: 27.1 nM
- CC50 [6]: 104 nM
- IC (TGI) [6]: 53.1 nM
- GI50 [7]: 34.2 nM
- CC50 [7]: 1060 nM
- IC (TGI) [7]: 69.3 nM
- GI50 [8]: 40.2 nM
- CC50 [8]: 12000 nM
- IC (TGI) [8]: 79.7 nM
- GI50 [9]: 6.89 nM
- CC50 [9]: 12000 nM
- IC (TGI) [9]: 86.8 nM
- GI50 [10]: 12.2 nM
- CC50 [10]: 67.7 nM
- IC (TGI) [10]: 28.8 nM
- GI50 [11]: 333 nM
- CC50 [11]: 12000 nM
- IC (TGI) [11]: 1330 nM
- GI50 [12]: 90.2 nM
- CC50 [12]: 12000 nM
- IC (TGI) [12]: 953 nM
- GI50 [13]: 5.71 nM
- CC50 [13]: 422 nM
- IC (TGI) [13]: 18.6 nM
- GI50 [14]: 26.3 nM
- CC50 [14]: 91.4 nM
- IC (TGI) [14]: 49 nM

Source: patent US7767659B2, “Synthesis of naturally occurring ecteinascidins and related compounds” (Pharma Mar, S.A., priority 2002, dated 2010)
